Data on 2 compounds can be found in PMC11891579, “Fluorescent PyrAte-(S)-citalopram conjugates enable imaging of the serotonin transporter in living tissue” (Chemical Science, 2025).

Data set [1] addresses T1, endogenously expressed SERT (Mus musculus, UniProt Q60857).
T1 construct: label endogenously expressed SERT; from tissue; host or cells: acute coronal brain slices of C57/BL-6 and Pet1-eYFP mice (dorsal striatum, substantia nigra reticulata, dorsal raphe)
The data set is described as follows: two-photon microscopy of acute mouse brain slices. The settings on record: for staining of acute mouse brain slices (DS, SNr, DR): 500 nM, 30 min, reduced by escitalopram or paroxetine. The text has this: All animal protocols were approved by the Institutional Animal Care and Use Committee (IACUC) of Columbia University, following guidelines established in the NIH Guide for the Care and Use of Laboratory Animals. All animals were caged in groups of 5 or less in a 12-hr light/dark cycle with access to food and water ad libitum.
Acute mouse brain slices preparation
Wild-type C57/BL-6 (The Jackson Laboratory, Bar Harbor, ME) and Pet1-eYFP mice were sacrificed by cervical dislocation at ages > 12 weeks. Pet1-eYFP mice (Cg-Tg(Fev-cre)1Esd/J (ePet-cre; The Jackson Laboratory) crossed with Ai32(RCLChR2(H134R)/EYFP (Ai32; The Jackson Laboratory) maintained on a 129SvEv/Tac background) were kindly provided by Dr. Mark S. Ansorge (Columbia University Irving Medical Center; Department of Psychiatry, New York, NY 10032). Mice were decapitated, and the brain was removed and placed in an ice-cold sucrose cutting solution. Coronal brain slices with 300 µm thickness were prepared using a Leica VT1200 vibratome at 0 – 4 °C. Slices containing the striatum, substantia nigra, and the raphe were transferred to oxygenated ACSF solution and allowed to equilibrate at room temperature.
Slices were incubated with PyrAte-(S)-citalopram conjugates (500 nM in ACSF) for 30 minutes at room temperature. For inhibition experiments, escitalopram (2 µM) and paroxetine (30 µM) were incubated for 15 minutes prior to addition of the test compound. Each slice was then transferred to an imaging chamber and held in place by a stainless-steel slice anchor (Warner Instruments). ACSF solutions containing the test compounds were continuously perfused throughout the imaging experiments. Structures at depths between 20 to 30 µm from the top of the slice were visualized with fluorescent signals using a Prairie Ultima multi-photon microscopy sytem: PyrAte was imaged using 810 nm excitation wavelength and 525/50 nm emission filter, eYFP was imaged using 965 nm excitation wavelength and 525/50 nm emission filter. Images were captured using Prairie View software and processed with ImageJ. Further co-localization analysis was performed using the JACoP plug-in.1 Statistical and data analysis
Data treatment and statistical analysis were performed using Microsoft Excel 2016 and GraphPad Prism v10.0. Data and statistical tests as shown in Figure 2 include individual points, mean, SEM, and P = 0.0023 as determined using two-tailed, paired t-test (t = 5.690, df = 5). Data and statistical tests as shown in Figure 5 include individual values, mean, SEM, and P values as determined using two-tailed unpaired t-test with Welch’s corrections (Fig. 5A: P = 0.0166, t = 4.665, df = 3.157; Fig. 5B: P =

Data set [2] can be described thus: photophysical properties in aqueous media. Format: physicochemical. The settings on record: PBS:DMSO 99:1 v/v; for Quantum yield: C153 as internal standard. The text has this:
Table S5. Photophysical properties of PyrAte-(S)-citalopram conjugates in aqueous media (PBS:DMSO
99:1 v/v). C153 (coumarin 153) was used as internal standard for the measurement of quantum yield.
Compound λmax (nm) λEm (nm) Stokes shift ε at λmax Quantum Brightness (at λmax,
(nm) (M-1 cm-1) yield 103 M-1 cm-1)

A further data set deals with T2, hNET (Homo sapiens, UniProt P23975).
T2 construct: expressed in transfected cells
As to the kind of experiment: radioligand uptake inhibition assay ([3H]MPP+). Format: cell-based. The settings on record: for IC50: HEK293 stably expressing hNET, 20 nM [3H]MPP+, mean and SD, N = 3-6, read-out: IC50, uptake inhibition at NET (hNET); for Hill coefficient nH at NET: uptake inhibition curve. The procedure:
(§1) 1. Biological characterization
(§2) 1.1. Experimental methods
(§3) Buffer and solution compositions (in mM) are as follows:
(§4) Krebs-HEPES buffer (KHB): 120 NaCl, 3 KCl, 2 CaCl2, 2 MgCl2, 20 glucose, 10 HEPES NaOH, pH = 7.3 – 7.4. […]
(§5) 10 mM glucose, 1.25 mM NaH2PO4, pH = 7.4 (oxygenated with 95% O2, 5% CO2).
(§6) Human embryonic kidney 293 cells (HEK293) stably expressing the mCherry-tagged, YFP-tagged, and GFP-tagged human isoforms of SERT (mCherry-SERT, YhSERT, GhSERT), DAT (YhDAT), NET (hNET), and OCT3 (YhOCT3) were cultured in Dulbecco's modified Eagle's medium (DMEM) with high glucose (4.5 g/L) and l-glutamine (584 mg/L), supplemented with 10% fetal calf serum (FCS), 100 units/mL penicillin and 100 µg/mL streptomycin. The cells were cultured in a humidified atmosphere (37 °C, 5% CO2). Geneticin (50 µg/mL), Blasticidin (6 µg/mL), and Zeocin® (150 µg/mL) were added to maintain the selection pressure for the stable cell lines. Cells were typically seeded 24 hours prior to the experiments.
(§7) For uptake inhibition experiments, cells were seeded at 3.6 x 10^4 cells/0.2 mL into 96-well plates coated […]
(§8) with poly-d-lysine (PDL). […]
(§9) For uptake inhibition experiments, the cell medium was aspirated and the cells were washed once with 0.2 mL/well KHB at room temperature. The cells were pre-incubated with increasing concentrations of the substance of interest, diluted in KHB (0.05 mL/well). The pre-incubation solution was replaced with 0.05 mL/well KHB solution still containing the substance of interest and additionally the tritiated substrate (100 nM [3H]DA for YhDAT; 100 nM [3H]5HT for YhSERT; 20 nM and 50 nM [3H]MPP+ for hNET and YhOCT3), after 6 minutes (YhSERT), 5 minutes (YhDAT, hNET), or 10 minutes (YhOCT3). Substrate uptake was stopped after one minute (for [3H]DA and [3H]5HT), three minutes, or […]
(§10) ten minutes (for [3H]MPP+), by exchange of the substrate-containing buffer with 0.2 mL ice-cold KHB.
(§11) The KHB was aspirated immediately. Cells were lysed and prepared for [3H] content analysis by adding 0.2 mL Ultima Gold™ XR liquid scintillation cocktail. Measurements were performed in a 1450 MicroBeta microplate liquid scintillation counter. Non-specific uptake was determined in the presence of 30 µM paroxetine (for YhSERT), 50 µM GBR12909 (for YhDAT and hNET), or 100 µM decynium-22 (for YhOCT3). […]

A further data set concerns the target T3, YhSERT (Homo sapiens, UniProt P31645).
T3 construct: expressed in transfected cells
The data set is described as follows: radioligand uptake inhibition assay ([3H]5HT). It counts as cell-based. To be noted: for IC50: HEK293 stably expressing YhSERT, 100 nM [3H]5HT, mean and SD, N = 3-6, read-out: IC50, uptake inhibition at SERT (YhSERT); for selectivity to SERT vs. DAT / selectivity to SERT vs. NET / selectivity to SERT vs. OCT3: from uptake inhibition IC50; for decrease of SERT affinity (IC50) compared to (S)-citalopram: uptake inhibition IC50; for Hill coefficient nH at SERT: uptake inhibition curve. The procedure: as §1, §2, §3, §4, §5, §6, §7, §8, §9, §10, §11

Structures are written as SMILES. “Also recorded” adds a separate entry of the source.

As usually defined, the IC50 is the concentration that gives 50% inhibition.

T1 sequence (Q60857 whole entry): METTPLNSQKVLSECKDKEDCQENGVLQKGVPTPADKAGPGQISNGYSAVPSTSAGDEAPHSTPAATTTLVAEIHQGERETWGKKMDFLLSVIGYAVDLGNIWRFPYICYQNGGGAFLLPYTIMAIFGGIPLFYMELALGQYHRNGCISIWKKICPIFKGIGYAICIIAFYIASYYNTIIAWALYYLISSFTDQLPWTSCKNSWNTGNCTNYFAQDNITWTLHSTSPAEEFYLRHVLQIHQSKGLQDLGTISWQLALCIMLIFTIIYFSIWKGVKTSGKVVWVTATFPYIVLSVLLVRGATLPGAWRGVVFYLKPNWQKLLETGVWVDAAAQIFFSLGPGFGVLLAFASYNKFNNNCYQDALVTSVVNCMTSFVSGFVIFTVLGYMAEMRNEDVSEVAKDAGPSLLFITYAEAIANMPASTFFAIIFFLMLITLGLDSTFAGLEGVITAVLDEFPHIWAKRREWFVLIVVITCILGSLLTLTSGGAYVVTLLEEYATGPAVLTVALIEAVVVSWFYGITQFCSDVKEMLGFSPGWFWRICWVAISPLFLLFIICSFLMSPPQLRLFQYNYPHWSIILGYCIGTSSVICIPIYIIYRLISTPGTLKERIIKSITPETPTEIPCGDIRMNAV
T2 sequence (P23975 whole entry): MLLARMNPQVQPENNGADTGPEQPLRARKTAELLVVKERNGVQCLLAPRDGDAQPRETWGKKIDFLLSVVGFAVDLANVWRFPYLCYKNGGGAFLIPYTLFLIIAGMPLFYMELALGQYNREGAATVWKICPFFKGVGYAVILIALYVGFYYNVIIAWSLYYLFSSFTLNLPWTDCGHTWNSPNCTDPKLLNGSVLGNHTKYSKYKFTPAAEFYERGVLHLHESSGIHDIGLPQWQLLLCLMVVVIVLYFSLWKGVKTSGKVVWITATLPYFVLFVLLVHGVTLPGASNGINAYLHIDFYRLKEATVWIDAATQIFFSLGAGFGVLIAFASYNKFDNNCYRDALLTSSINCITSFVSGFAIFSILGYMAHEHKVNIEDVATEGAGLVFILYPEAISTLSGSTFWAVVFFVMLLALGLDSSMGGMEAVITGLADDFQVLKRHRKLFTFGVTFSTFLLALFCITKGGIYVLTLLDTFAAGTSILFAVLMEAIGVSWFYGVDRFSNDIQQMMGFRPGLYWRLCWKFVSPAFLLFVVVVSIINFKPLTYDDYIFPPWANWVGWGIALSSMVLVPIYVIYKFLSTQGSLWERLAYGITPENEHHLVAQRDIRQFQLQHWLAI
T3 sequence (P31645 whole entry): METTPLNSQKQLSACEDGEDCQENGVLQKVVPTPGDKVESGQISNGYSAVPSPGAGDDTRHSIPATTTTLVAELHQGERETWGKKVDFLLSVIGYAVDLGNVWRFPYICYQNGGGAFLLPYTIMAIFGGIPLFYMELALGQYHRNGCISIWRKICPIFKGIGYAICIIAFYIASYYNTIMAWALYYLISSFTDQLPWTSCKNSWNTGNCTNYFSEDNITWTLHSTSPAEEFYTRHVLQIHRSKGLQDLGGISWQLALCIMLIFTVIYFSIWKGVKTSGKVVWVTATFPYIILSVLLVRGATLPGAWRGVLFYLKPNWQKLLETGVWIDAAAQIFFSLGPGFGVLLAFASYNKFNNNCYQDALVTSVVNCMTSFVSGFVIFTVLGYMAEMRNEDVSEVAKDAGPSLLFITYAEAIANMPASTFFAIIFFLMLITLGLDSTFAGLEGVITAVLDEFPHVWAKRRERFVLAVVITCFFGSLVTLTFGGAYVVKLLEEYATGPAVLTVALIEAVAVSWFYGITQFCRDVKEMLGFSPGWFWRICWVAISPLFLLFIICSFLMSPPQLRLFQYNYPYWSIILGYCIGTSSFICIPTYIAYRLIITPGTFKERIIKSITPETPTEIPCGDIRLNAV

`CCN(CC)c1ccc(-c2cc[n+]3c(-c4ccccc4)c(N4CCCC4)n(CCCCCCC(=O)NCc4ccc5c(c4)CO[C@@]5(CCCN(C)C)c4ccc(F)cc4)c3c2)cc1` [PYR-C6-CIT, PyrAte-C6-(S)-citalopram]: the “staining of acute mouse brain slices (DS, SNr, DR)” value in data set [1] is given as “effectively stains all three areas examined; also recorded: SERT-specific staining in acute mouse brain slices”. Also, in data set [2], the “Brightness (at λmax)” value is 27.0 103 M-1 cm-1, the Stokes shift turned out to be 87 nm, the “ε at λmax” value came out at 39600 M⁻¹ cm⁻¹ and the λEm is 493 nm. Further, in data set [2], the λmax turned out to be 406 nm and the Quantum yield turned out to be 0.69. For the same compound, on hNET, the IC50 is 12.6 µM and the “Hill coefficient nH at NET” value is −1.3. In addition, on YhSERT, the IC50 came out at 0.83 µM, the “selectivity to SERT vs. DAT” value worked out at 2.5 fold, the “selectivity to SERT vs. NET” value was determined as 15 fold and the “selectivity to SERT vs. OCT3” value was 2.5 fold. Further, at YhSERT, the “decrease of SERT affinity (IC50) compared to (S)-citalopram” value was “around 20 fold” and the “Hill coefficient nH at SERT” value was −3.1.
With `CCN(CC)c1ccc(-c2cc[n+]3c(-c4ccccc4)c(N4CCCC4)n(CCCC(=O)NCc4ccc5c(c4)CO[C@@]5(CCCN(C)C)c4ccc(F)cc4)c3c2)cc1` [PYR-C3-CIT, PyrAte-C3-(S)-citalopram], the “staining of acute mouse brain slices (DS, SNr, DR)” value in data set [1] was “localization of the compound in serotonergic regions in the DS and SNr”. The “Pearson's correlation coefficient r, co-localization with eYFP-expressing serotonergic projections” value (“Pearson's correlation coefficient r” below) in data set [1] (DS, Pet1-eYFP mice) was 0.70. Further, the “Pearson's correlation coefficient r” value in data set [1] (DS, in the presence of paroxetine) is reported as 0.43. Besides, the “Pearson's correlation coefficient r” value in data set [1] (SNr, Pet1-eYFP mice) is 0.72. Moreover, the “Pearson's correlation coefficient r” value in data set [1] (SNr, in the presence of paroxetine) worked out at 0.58. In data set [2], the “Brightness (at λmax)” value is given as 24.0 103 M-1 cm-1, the Stokes shift worked out at 88 nm, the “ε at λmax” value came out at 30000 M⁻¹ cm⁻¹ and the λEm amounted to 493 nm. In addition, in data set [2], the λmax came out at 405 nm and the Quantum yield is reported as 0.82. Besides, on hNET, the IC50 was 10.9 µM and the “Hill coefficient nH at NET” value is −1.0. For the same compound, at YhSERT, the IC50 came out at 0.4 µM, the “selectivity to SERT vs. DAT” value was “around 10 fold”, the “selectivity to SERT vs. NET” value was 27 fold and the “selectivity to SERT vs. OCT3” value came to 8.2 fold. In addition, at YhSERT, the “decrease of SERT affinity (IC50) compared to (S)-citalopram” value is listed as 10 fold and the “Hill coefficient nH at SERT” value is −3.0.
